# Assay results taken from publication PMC1190152, “Archazolid and apicularen: Novel specific V-ATPase inhibitors” (BMC Biochemistry, 2005).
# Key:
# L-929 = experiment: Growth inhibition of L-929 cells (MTT assay); type: cell-based; settings: Mus musculus, L929, 120 h; L-929, murine connective tissue; MTT after 5 days
# Experimental: (§1) Cell lines were obtained from the German Collection of Microorganisms and Cell Cultures (DSMZ). Cell lines 3Y1 and M1 (embryonal fibroblasts from 129/Ola × C57BL/6 mice, [30]) were a generous gift from Dr. S. Miyamoto, Fukoka, Japan, and Dr. P. F. Mühlradt, Braunschweig, Germany. All cell lines were cultivated under conditions recommended by the supplier. Growth inhibition was measured in microtiterplates. Aliquots of 120 μl of the suspended cells (50,000/ml) were given to 60 μl of a serial dilution of the inhibitor. After 5 days, growth was determined using the MTT assay.
# 3Y1 = experiment: Growth inhibition of 3Y1 cells (MTT assay); type: cell-based, rat; settings: 120 h; 3Y1, rat embryogenic fibroblast cell line; MTT after 5 days; read-out: IC50 growth inhibition
# Experimental: as §1
# KB-V1 = experiment: Growth inhibition of multidrug-resistant KB-V1 cells (MTT assay), with or without verapamil; type: cell-based; settings: 120 h; KB-V1, mdr human cervix carcinoma; without verapamil; MTT after 5 days
# Experimental: The novel antibiotics archazolids and apicularens (Fig. 1) were checked for their impact on the cell growth of a variety of mammalian cell lines from different tissues (Tab. 1). […] Apicularen B was the only exception, with an average IC50 value two orders of magnitude higher. Growth inhibition of the multidrug-resistant cell line KB-V1 was also measured in the presence of verapamil. […] The data in Tab 1. show, that unlike the archazolids, the apicularens are poor substrates of Pgp. To visualize the impact of the antibiotics, PtK2 (potoroo kidney) cells were incubated with the inhibitors and stained for intact acidic lysosomes (Fig. 2). […] The same observation was made with KB-3-1 cells (data not shown). […] Unlike the cell lines listed in Tab. 1, the growth of PtK2 cells was not completely stopped. The same holds true for A-498 cells (human kidney carcinoma). Both cell lines grow epithelial-like. There was obviously a differential reaction of cell lines to V-ATPase inhibitors. For A-431 cells (human epidermoid carcinoma) a dependence on the expression of the EGF receptor was shown.
# as §1
# M1 = experiment: Growth inhibition of M1 cells (MTT assay); type: cell-based, mouse; settings: 120 h; M1, mouse embryogenic fibroblast cell line; MTT after 5 days; read-out: IC50 growth inhibition
# Experimental: as §1
# [1] = target: T1, V-ATPase holoenzyme from the midgut of the tobacco hornworm (Manduca sexta, UniProt P31403); experiment: Inhibition of purified V-ATPase holoenzyme activity; type: biochemical
# T1 construct: purified V-ATPase holoenzyme from the midgut of the tobacco hornworm; from tissue; host or cells: midgut of fifth instar Manduca sexta larvae
# Experimental: The V-ATPase holoenzyme was purified as published elsewhere. Preparation of highly purified membranes containing Na^+/K^+-ATPase from pig kidney followed the protocol of Jørgensen with the three main steps of differential centrifugation, incubation with SDS in the presence of ATP and sucrose density gradient centrifugation in a fixed angle rotor, and led to a specific enzyme activity which was in the same range as that reported by the authors. The resulting sample was stored frozen at -20°C. To prepare crude membrane extracts, the hearts of three mice were washed three times with an ice-cold buffer of pH 8.1 consisting of 0.25 M sucrose, 5 mM Tris-HCl, 5 mM EDTA, and 10 mM Pefabloc SC (Biomol), homogenized in 5 ml of this buffer and centrifuged at 4°C for 25 min at 233,000 × gmax in a fixed angle rotor. The resulting pellet was resuspended in 5 ml of a buffer of pH 7.5, consisting of 5 mM Tris-MOPS (3-morpholinopropanesulfonic acid), 10 mM NaCl, 10 mM Pefabloc SC, 9.6 mM 2-mercaptoethanol, 0.53 mM EGTA and 0.1 % Triton X-100. After an aliquot for protein determination had been taken, 10% bovine serum albumin (final concentration) was added to the suspension which was then stored on ice until the activity assays were run. Beef heart mitochondria were isolated by differential centrifugation, following the protocol of Smith by using a blender to homogenize the heart mince. The initial homogenization buffer consisted of 250 mM saccharose, 10 mM KH2PO4, 10 mM Tris, 2 mM EGTA, 2 mM MgCl2, pH 7.4, and further isolation procedures were carried out in the same medium without EGTA [24]. Submitochondrial particles were obtained by ultrasonic treatment of the mitochondria.
# Standard V-ATPase assays with a final volume of 160 μl and a pH of 8.1 consisted of 3–4 μg of protein, 50 mM Tris-MOPS, 3 mM 2-mercaptoethanol, 1 mM MgCl2, 20 mM KCl, 0.003% C12E10, 20 mM NaCl, and 3 mM Tris-HCl. After 5 min of pre-incubation at 30°C with or without inhibitors, 1 mM Tris-ATP was added and after incubation for 2 min the reaction was stopped by placing the tube in liquid nitrogen. Assays using Na^+/K^+-ATPase were performed in 160 μl at pH 7.5 and contained 0.5 μg of protein, 50 mM Tris-MOPS, 5 mM imidazole, 0.2 mM EDTA, 4 mM MgCl2, 20 mM KCl and 100 mM NaCl. After 5 min of pre-incubation at 37°C with or without inhibitors, 3 mM Tris-ATP was added and after 1 min of incubation the reaction was stopped by placing the tube in liquid nitrogen. […] After 5 min of pre-incubation at 30°C with or without inhibitors, 1 mM Tris-ATP was added and after an incubation time of 10 min the reaction was stopped by placing the tubes in liquid nitrogen. ATPase assays with submitochondrial particles from beef heart were performed in a final volume of 1 ml and a pH of 8.0. The samples contained 9–12 μg protein, 50 mM Tris, 50 mM KCl and 2.5 mM MgCl2. After 5 min of preincubation with or without inhibitors, 5 mM ATP was added, and after an additional incubation time of 15 min the reaction was stopped by the addition of 0.4 ml of 20 % TCA.
# Inorganic phosphate produced in the assays of V-ATPase, Na^+/K^+-ATPase and mouse heart F-ATPase was measured according the protocol of Wieczorek et al., while the determination of inorganic phosphate produced in the assays of beef heart F-ATPase followed the method of Fiske and Subarrow using ascorbic acid as reducing agent.
# Fifth instar larvae of M. sexta (Lepidoptera, Sphingidae), weighing 6–8 g, were reared under long day conditions (16 h of light) at 27°C using a synthetic diet modified according to Bell et al.
# A-594 = system: A-594; design: method as in PMID 10048565; settings: A-594, human lung carcinoma; ref [15]; read-out: IC50 growth inhibition; cited from earlier work
# bacterial growth = settings: ref [11],[15],[17]; cited from earlier work
# T1 sequence (P31403 whole entry): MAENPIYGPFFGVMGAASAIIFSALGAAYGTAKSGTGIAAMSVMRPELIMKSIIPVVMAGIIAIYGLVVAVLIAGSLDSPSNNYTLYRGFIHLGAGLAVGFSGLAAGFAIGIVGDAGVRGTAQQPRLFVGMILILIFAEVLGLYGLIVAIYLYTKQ
compound,measurement,setting,value
CC/C=C\C=C/C(=O)N/C=C/CC1CC2CC(O[C@@H]3O[C@H](CO)[C@@H](O)[C@H](O)[C@H]3NC(C)=O)CC(Cc3cccc(O)c3C(=O)O1)O2 (some centres unmarked) [apicularen B],IC50,L-929,0.62 µM
same,IC50,3Y1,0.31 µM
same,IC50,KB-V1,1.6 µM
same,IC50,M1,0.19 µM
same,"IC50 per mg of protein, purified V-ATPase",[1]; equivalent of the half-maximal concentration,~2.4 nmol per mg of protein
same,IC50,"[1]; purified holoenzyme, 3–4 μg protein, pH 8.1, 30°C, read-out: half-maximal inhibition concentration of purified V-ATPase",~0.06 µM
same,IC50,A-594,0.31 µM
same,inhibition of bacterial growth,bacterial growth,failed to inhibit
